In US20220204497A1, “NOVEL COMPOUND HAVING ANTICANCER ACTIVITY, AND METHOD FOR PRODUCING SAME” (MEDICINAL BIOCONVERGENCE RESEARCH CENTER, priority 2019, published 2022):
Several values for one entry are separate records, joined by “and”; a condition that tells them apart may be missing. Equal values may be shown once.

How the values were obtained:
A549 cells = assay: Cell viability by MTT method in A549 cells; format: cell-based; parameters: concentration or dose not given beside the values; conditions: 72 hours treatment
AIMP2-DX2 = target: T1, AIMP2-DX2 (Homo sapiens, UniProt Q13155); assay: DX2-nanoluciferase assay (DX2 expression change) in transfected A549 cells; conditions: for inhibition at 10 µM / inhibition at 40 µM: A549, 4 h; for inhibition at 10 µM: read-out: DX-Nanoluciferase activity (10 μM), 10 μM, 4 hours treatment, A549 cells transfected with nanoluciferase-DX2; for inhibition at 40 µM: read-out: DX-Nanoluciferase activity (40 μM), 40 μM, 4 hours treatment, A549 cells transfected with nanoluciferase-DX2
T1 sequence (Q13155 1-251 isoform Q13155-2): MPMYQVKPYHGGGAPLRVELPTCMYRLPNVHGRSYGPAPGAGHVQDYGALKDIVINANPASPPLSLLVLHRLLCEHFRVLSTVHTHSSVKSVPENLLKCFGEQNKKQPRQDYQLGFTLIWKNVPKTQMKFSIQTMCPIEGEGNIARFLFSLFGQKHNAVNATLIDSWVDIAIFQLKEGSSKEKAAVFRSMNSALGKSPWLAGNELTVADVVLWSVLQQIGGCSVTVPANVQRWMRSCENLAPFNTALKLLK

[1] = 4 hours treatment, A549 cells transfected with nanoluciferase-DX2
[2] = inhibitory effect on AIMP2-DX2 expression

Compound | Cell Viability (% inhibition) (A549) (A549 cells) | DX-Nanoluciferase activity (10 μM) (AIMP2-DX2; [1]) | inhibition at 10 µM (AIMP2-DX2) [%] | inhibition at 40 µM (AIMP2-DX2; [2]) [%] | DX-Nanoluciferase activity (40 μM) (AIMP2-DX2; 40 μM, 4 hours treatment, A549 cells transfected with nanoluciferase-DX2, inhibitory effect on AIMP2-DX2 expression)
COc1ccc(C(=O)NNC(=O)[C@H](Cc2c[nH]c3ccccc23)NS(=O)(=O)c2ccc(C)cc2)cc1 [Compound 182, (S)—N-(3-(1H-indol-3-yl)-1-(2-(4-methoxybenzoyl)hydrazinyl)-1-oxopropan-2-yl)-4-methylbenzenesulfonamide] | 0.19 ± 15.38% | 69.62 ± 3.16 (10 μM) | – | – | –
COc1ccc(NC(=O)NNC(=O)[C@H](Cc2c[nH]c3ccccc23)NS(=O)(=O)c2ccc(C)cc2)cc1 [Compound 183, (S)-2-(3-(1H-indol-3-yl)-2-(4-methylphenylsulfonamido)propanoyl)-N-(4-methoxyphenyl)hydrazinecarboxamide] | 42.25 ± 5.21% | – | 68.1 ± 8.2 | – | –
Cc1cc(C)n(C(=O)[C@H](Cc2c[nH]c3ccccc23)NS(=O)(=O)c2ccc(Br)cc2)n1 [Compound 184, (S)-4-Bromo-N-(1-(3,5-dimethyl-1H-pyrazol-1-yl)-3-(1H-indol-3-yl)-1-oxopropan-2-yl)benzenesulfonamide] | −24.64 ± 2.77% | – | 78.4 | – | –
Cc1ccc(S(=O)(=O)N[C@@H](Cc2c[nH]c3ccccc23)C(=O)NNC(=O)C23CC4CC(CC(C4)C2)C3)cc1 [Compound 186, N—((S)-1-(2-((3S,5S,7S)-adamantane-1-carbonyl)hydrazinyl)-3-(1H-indol-3-yl)-1-oxopropan-2-yl)-4-methylbenzenesulfonamide] | 59.96 ± 10.37% | 78.43 ± 6.05 (10 μM) | – | – | –
Cc1ccc(-c2csc(NC(=O)[C@H](Cc3c[nH]c4ccccc34)NS(=O)(=O)c3ccc(Br)cc3)n2)cc1 [Compound 187, (S)-2-(4-Bromophenylsulfonamido)-3-(1H-indol-3-yl)-N-(4-(p-tolyl)thiazol-2-yl)propanamide] | 61.41 ± 4.21% | – | 34.9 ± 10.6 | – | –
Cc1ccc(S(=O)(=O)N[C@@H](Cc2c[nH]c3ccccc23)C(=O)NCCc2ccccc2)cc1 [Compound 188, (S)-3-(1H-indol-3-yl)-2-(4-methylphenylsulfonamido)-N-phenethylpropanamide] | 53.90 ± 1.97% | – | 61.1 ± 12.9 | – | –
COc1ccc(C(=O)NNC(=O)[C@H](Cc2c[nH]c3ccccc23)NS(=O)(=O)c2ccc(C)cc2)cc1 [Compound 191, (S)—N-(3-(1H-Indol-3-yl)-1-(2-(4-methoxybenzoyl)hydrazinyl)-1-oxopropan-2-yl)-4-methylbenzenesulfonamide] | 49.17 ± 2.36% | 8.09 ± 6.94 (10 μM) | – | – | –
N#Cc1ccc(-c2csc(NC(=O)[C@H](Cc3c[nH]c4ccccc34)NS(=O)(=O)c3ccc(Br)cc3)n2)cc1 [Compound 192, (S)-2-(4-Bromophenylsulfonamido)-N-(4-(4-cyanophenyl)thiazol-2-yl)-3-(1H-Indol-3-yl)propanamide] | 81.69 ± 2.49% | – | 15.5 ± 3.27 | – | –
O=C(Nc1nc(-c2ccc(C(F)(F)F)cc2)cs1)[C@H](Cc1c[nH]c2ccccc12)NS(=O)(=O)c1ccc(Br)cc1 [Compound 193, (S)-2-(4-Bromophenylsulfonamido)-3-(1H-Indol-3-yl)-N-(4-(4-(trifluoromethyl)phenyl)thiazol-2-yl)propanamide] | 88.98 ± 0.59% and 88.98 ± 10.59% | – | 49.3 ± 9.52 | – | –
O=C(NCCc1ccccc1)[C@H](Cc1c[nH]c2ccccc12)NS(=O)(=O)c1ccc(Br)cc1 [Compound 196, (S)-2-(4-Bromophenylsulfonamido)-3-(1H-indol-3-yl)-N-phenethylpropanamide] | 79.27 ± 0.55% | – | 28.2 ± 2.11 | – | –
O=C(NNC(=O)C12CC3CC(CC(C3)C1)C2)[C@H](Cc1c[nH]c2ccccc12)NS(=O)(=O)c1ccc(Br)cc1 [Compound 197, N—((S)-1-(2-((3S,5S,7S)-adamantane-1-carbonyl)hydrazinyl)-3-(1H-indol-3-yl)-1-oxopropan-2-yl)-4-bromobenzenesulfonamide] | 84.86 ± 1.09% | 43.54 ± 5.26 (10 μM) and 43.64 ± 5.26 (10 μM) | – | – | –
O=C(NCCc1ccc(F)cc1)[C@H](Cc1c[nH]c2ccccc12)NS(=O)(=O)c1ccc(Br)cc1 [Compound 198, (S)-2-(4-Bromophenylsulfonamido)-N-(4-fluorophenethyl)-3-(1H-indol-3-yl)propanamide] | 82.05 ± 0.64% | – | 44.2 ± 8.7 | – | –
COc1ccc(CCNC(=O)[C@H](Cc2c[nH]c3ccccc23)NS(=O)(=O)c2ccc(Br)cc2)cc1 [Compound 199, (S)-2-(4-Bromophenylsulfonamido)-3-(1H-indol-3-yl)-N-(4-methoxyphenethyl)propanamide] | 84.34 ± 0.87% | – | – | 30.6 ± 8.13 | –
O=C(NCCCc1ccccc1)[C@H](Cc1c[nH]c2ccccc12)NS(=O)(=O)c1ccc(Br)cc1 [Compound 200, (S)-2-(4-Bromophenylsulfonamido)-3-(1H-indol-3-yl)-N-(3-phenylpropyl)propanamide] | 79.27 ± 0.9% | – | – | 46.4 ± 4.51 | –
O=C(NC12CC3CC(CC(C3)C1)C2)[C@H](Cc1c[nH]c2ccccc12)NS(=O)(=O)c1ccc(Br)cc1 [Compound 201, (S)—N((3R,5R,7R)-adamantan-1-yl)-2-(4-bromophenylsulfonamido)-3-(1H-Indol-3-yl)propanamide] | 87.1 ± 0.46% | – | – | – | 58.25 ± 4.09
COc1ccc(N2CCN(C(=O)[C@H](Cc3c[nH]c4ccccc34)NS(=O)(=O)c3ccc(Br)cc3)CC2)cc1 [Compound 202, (S)—N-(3-(1H-indol-3-yl)-1-(4-(4-methoxyphenyl)piperazin-1-yl)-1-oxopropan-2-yl)-4-bromobenzenesulfonamide] | 78.44 ± 2.44% | – | – | 38.6 ± 11.3 | –
COc1ccc(N2CCN(C(=O)[C@H](Cc3c[nH]c4ccccc34)NS(=O)(=O)c3ccc(C)cc3)CC2)cc1 [Compound 203, (S)—N-(3-(1H-indol-3-yl)-1-(4-(4-methoxyphenyl)piperazin-1-yl)-1-oxopropan-2-yl)-4-methylbenzenesulfonamide] | 48.15 ± 3.26% | – | – | 35.1 ± 14.2 | –
COc1ccc(-c2csc(NC(=O)[C@H](Cc3c[nH]c4ccc(O)cc34)NS(=O)(=O)c3ccc(Br)cc3)n2)cc1 [Compound 217, (S)-2-(4-Bromophenylsulfonamido)-3-(5-hydroxy-1H-indol-3-yl)-N-(4-(4-methoxyphenyl)thiazol-2-yl)propanamide] | 89.41 ± 0.79% | – | 21.3 | – | –
COc1ccc(-c2csc(NC(=O)[C@H](Cc3c[nH]c4ccc(C)cc34)NS(=O)(=O)c3ccc(Br)cc3)n2)cc1 [Compound 218, (S)-2-(4-Bromophenylsulfonamido)-N-(4-(4-methoxyphenyl)thiazol-2-yl)-3-(5-methyl-1H-indol-3-yl)propanamide] | 90.98 ± 1% | – | 34.8 | – | –
COc1ccc(-c2csc(NC(=O)[C@H](Cc3c[nH]c4ccc(F)cc34)NS(=O)(=O)c3ccc(Br)cc3)n2)cc1 [Compound 219, (S)-2-(4-Bromophenylsulfonamido)-3-(5-fluoro-1H-indol-3-yl)-N-(4-(4-methoxyphenyl)thiazol-2-yl)propanamide] | 95.58 ± 0.08% | – | 46.9 ± 8.36 | – | –
Cc1ccc(S(=O)(=O)N[C@@H](Cc2c[nH]c3ccccc23)C(=O)NCCc2ccc(C(=O)O)cc2)cc1 [Compound 220, (S)-4-(2-(3-(1H-indol-3-yl)-2-(4-methylphenylsulfonamido)propanamido)ethyl)benzoic acid] | −11.09 ± 8.4% | – | 15.9 ± 19.4 | – | –
Cc1ccc(S(=O)(=O)N[C@@H](Cc2c[nH]c3ccccc23)C(=O)NCCc2ccc(Br)cc2)cc1 [Compound 221, (S)—N-(4-bromophenethyl)-3-(1H-indol-3-yl)-2-(4-methylphenylsulfonamido)propanamide] | 97.31 ± 0.8% | – | 40.1 ± 3.09 | – | –
Cc1ccc(S(=O)(=O)N[C@@H](Cc2c[nH]c3ccccc23)C(=O)NCCc2c[nH]c3ccccc23)cc1 [Compound 222, (S)—N-(2-(1H-indol-3-yl)ethyl)-3-(1H-indol-3-yl)-2-(4-methylphenylsulfonamido)propanamide] | 91.05 ± 1.38% | – | 31.3 ± 14.7 | – | –
Cc1ccc(CCNC(=O)[C@H](Cc2c[nH]c3ccccc23)NS(=O)(=O)c2ccc(C)cc2)cc1 [Compound 223, (S)-3-(1H-indol-3-yl)-N-(4-methylphenethyl)-2-(4-methylphenylsulfonamido)propanamide] | 93.28 ± 1.51% | – | 34.9 ± 11.8 | – | –
